This note sets out measurements from ChEMBL document CHEMBL6114993, “Thienopyrimidine: A promising scaffold in the development of kinase inhibitors with anticancer activities” (Bioorg Med Chem, 2025).

Assay [1] addresses T1, Fas-activated serine/threonine kinase (Homo sapiens, UniProt Q14296).
T1 sequence (Q14296 whole entry): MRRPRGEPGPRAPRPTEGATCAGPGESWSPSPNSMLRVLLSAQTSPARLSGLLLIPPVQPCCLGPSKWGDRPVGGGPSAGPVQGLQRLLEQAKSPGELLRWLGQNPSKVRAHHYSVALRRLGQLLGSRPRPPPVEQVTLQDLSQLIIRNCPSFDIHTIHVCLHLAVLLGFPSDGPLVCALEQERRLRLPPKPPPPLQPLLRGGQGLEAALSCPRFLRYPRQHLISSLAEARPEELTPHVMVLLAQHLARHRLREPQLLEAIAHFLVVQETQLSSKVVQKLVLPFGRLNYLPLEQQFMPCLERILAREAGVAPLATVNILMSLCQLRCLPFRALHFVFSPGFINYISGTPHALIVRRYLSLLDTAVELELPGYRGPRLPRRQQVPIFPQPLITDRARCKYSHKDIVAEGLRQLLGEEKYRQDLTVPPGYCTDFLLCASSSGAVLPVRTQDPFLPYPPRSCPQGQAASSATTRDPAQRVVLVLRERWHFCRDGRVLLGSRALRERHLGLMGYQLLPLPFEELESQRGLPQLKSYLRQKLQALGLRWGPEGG
The assay is described as follows: Inhibition of […] human FASTK (355 to 444 residues) extracted from Escherichia coli BL21 (DE3) by Malachite Green dye based assay.

The next assay relates to MCF7. Description: Antiproliferative activity against human MCF7 cells assessed as reduction in cell viability incubated for 48 hrs by MTT assay. The class given is functional, cell-based. Conditions: MCF7, 48 h. On the technique in general: Tetrazolium assays rely on reduction of a dye to a coloured formazan, in cell work by metabolically active cells.
For assay [2], the target named is Receptor tyrosine-protein kinase erbB-2 (Homo sapiens) (UniProt P04626). Description: Inhibition of human recombinant HER-2 at 10 uM relative to control.
Receptor tyrosine-protein kinase erbB-2 (Homo sapiens), sequence (P04626 whole entry): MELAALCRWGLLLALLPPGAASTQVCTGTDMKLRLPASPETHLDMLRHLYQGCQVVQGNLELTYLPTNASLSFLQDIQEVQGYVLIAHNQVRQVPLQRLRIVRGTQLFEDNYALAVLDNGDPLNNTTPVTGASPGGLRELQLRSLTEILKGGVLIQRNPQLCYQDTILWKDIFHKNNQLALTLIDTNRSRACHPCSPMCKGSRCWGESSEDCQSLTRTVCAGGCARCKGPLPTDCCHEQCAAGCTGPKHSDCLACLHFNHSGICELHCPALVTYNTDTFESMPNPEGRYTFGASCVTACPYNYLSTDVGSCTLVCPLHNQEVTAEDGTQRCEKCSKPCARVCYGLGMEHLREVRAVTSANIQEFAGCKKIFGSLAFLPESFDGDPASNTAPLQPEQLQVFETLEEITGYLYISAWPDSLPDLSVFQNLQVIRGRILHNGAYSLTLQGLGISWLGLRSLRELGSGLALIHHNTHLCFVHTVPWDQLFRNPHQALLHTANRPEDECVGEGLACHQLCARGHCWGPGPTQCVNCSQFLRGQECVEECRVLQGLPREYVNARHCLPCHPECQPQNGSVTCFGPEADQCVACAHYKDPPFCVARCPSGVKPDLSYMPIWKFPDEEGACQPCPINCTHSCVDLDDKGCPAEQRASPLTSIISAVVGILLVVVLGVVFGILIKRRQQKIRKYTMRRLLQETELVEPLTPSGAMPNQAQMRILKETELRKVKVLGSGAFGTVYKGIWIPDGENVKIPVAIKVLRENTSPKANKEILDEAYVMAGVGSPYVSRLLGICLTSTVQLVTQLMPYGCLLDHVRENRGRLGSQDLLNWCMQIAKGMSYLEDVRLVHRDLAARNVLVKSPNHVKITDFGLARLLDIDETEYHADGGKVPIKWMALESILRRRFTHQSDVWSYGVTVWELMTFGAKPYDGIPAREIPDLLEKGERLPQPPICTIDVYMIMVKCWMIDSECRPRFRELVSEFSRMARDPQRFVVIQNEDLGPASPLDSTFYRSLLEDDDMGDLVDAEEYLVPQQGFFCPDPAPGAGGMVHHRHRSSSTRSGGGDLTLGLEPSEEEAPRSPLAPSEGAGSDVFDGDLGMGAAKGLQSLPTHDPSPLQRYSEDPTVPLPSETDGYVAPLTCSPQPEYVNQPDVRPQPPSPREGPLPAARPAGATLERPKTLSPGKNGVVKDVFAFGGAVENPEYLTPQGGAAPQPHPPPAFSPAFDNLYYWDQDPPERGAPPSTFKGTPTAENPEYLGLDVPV
For assay [3], the target named is Epidermal growth factor receptor (Homo sapiens) (UniProt P00533). Description: Inhibition of human recombinant EGFR at 10 uM relative to control.
Epidermal growth factor receptor (Homo sapiens), sequence (P00533 whole entry): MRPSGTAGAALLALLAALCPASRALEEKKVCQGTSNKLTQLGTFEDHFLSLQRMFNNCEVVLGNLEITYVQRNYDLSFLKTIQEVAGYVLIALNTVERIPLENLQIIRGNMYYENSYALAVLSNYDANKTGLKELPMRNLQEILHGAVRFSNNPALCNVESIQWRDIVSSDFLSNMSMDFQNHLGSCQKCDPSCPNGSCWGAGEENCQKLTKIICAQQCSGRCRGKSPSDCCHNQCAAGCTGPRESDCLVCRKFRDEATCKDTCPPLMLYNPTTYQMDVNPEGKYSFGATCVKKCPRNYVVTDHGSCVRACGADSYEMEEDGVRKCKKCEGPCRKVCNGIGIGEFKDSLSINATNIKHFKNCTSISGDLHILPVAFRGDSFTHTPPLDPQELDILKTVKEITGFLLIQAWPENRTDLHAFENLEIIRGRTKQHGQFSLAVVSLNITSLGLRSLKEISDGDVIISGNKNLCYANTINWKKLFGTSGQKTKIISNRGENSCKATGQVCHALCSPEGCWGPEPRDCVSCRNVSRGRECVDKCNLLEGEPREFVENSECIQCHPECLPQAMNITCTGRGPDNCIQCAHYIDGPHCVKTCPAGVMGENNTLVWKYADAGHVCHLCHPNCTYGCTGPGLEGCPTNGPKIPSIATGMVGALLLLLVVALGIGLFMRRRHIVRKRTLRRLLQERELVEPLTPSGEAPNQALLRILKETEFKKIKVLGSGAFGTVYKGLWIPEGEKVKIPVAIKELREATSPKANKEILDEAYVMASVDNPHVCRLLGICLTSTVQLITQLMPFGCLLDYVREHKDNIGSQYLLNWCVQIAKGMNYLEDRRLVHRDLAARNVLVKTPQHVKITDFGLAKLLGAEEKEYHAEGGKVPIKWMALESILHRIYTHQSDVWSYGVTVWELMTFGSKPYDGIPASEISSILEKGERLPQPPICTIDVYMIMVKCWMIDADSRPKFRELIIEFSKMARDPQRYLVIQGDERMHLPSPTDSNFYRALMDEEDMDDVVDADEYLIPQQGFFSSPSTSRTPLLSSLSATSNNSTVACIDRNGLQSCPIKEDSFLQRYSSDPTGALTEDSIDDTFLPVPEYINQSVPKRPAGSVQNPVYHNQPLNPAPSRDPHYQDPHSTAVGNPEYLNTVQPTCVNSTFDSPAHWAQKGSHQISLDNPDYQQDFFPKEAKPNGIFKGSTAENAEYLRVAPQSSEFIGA
The next assay deals with MDA-MB-468. The assay is described as follows: Antiproliferative activity against human MDA-MB-468 cells overexpressing EGFR/HER-2 assessed as inhibition of cell growth at 10 uM relative to control. The class given is functional.
For a further assay, the system named is NCI-H522. Description: Antiproliferative activity against human NCI-H522 cells overexpressing EGFR/HER-2 assessed as inhibition of cell growth at 10 uM relative to control. The class given is functional.
The subject of the next assay is SK-OV-3. The assay is described as follows: Antiproliferative activity against human SK-OV-3 cells overexpressing EGFR/HER-2 assessed as inhibition of cell growth at 10 uM relative to control. In kind it is functional.
In a further assay the test system is HUVEC. Description: Antiproliferative activity against HUVEC cells assessed as reduction in cell viability at 10 uM by alamar blue reagent based assay relative to control. The class given is functional. Conditions: Homo sapiens. (Resazurin is reduced to fluorescent resorufin, in cell work by metabolically active cells.)
Assay [4] has as its target Vascular endothelial growth factor receptor 2 (Homo sapiens) (UniProt P35968). The assay is described as follows: Inhibition of N-terminal GST-tagged human recombinant VEGFR2 extracted from Sf9 cells at 10 uM relative to control. In kind it is cell-free.
In the next assay the test system is Ehrlich. Description: Antitumor activity against mouse Ehrlich carcinoma cell implanted in Swiss albino mouse model assessed as tumour growth inhibition at 10 mg/kg, po administered consecutively for 8 days relative to control. The class given is functional. Conditions: 192 h, time 8 day, read-out: TGI.

Vascular endothelial growth factor receptor 2 (Homo sapiens), sequence (P35968 whole entry): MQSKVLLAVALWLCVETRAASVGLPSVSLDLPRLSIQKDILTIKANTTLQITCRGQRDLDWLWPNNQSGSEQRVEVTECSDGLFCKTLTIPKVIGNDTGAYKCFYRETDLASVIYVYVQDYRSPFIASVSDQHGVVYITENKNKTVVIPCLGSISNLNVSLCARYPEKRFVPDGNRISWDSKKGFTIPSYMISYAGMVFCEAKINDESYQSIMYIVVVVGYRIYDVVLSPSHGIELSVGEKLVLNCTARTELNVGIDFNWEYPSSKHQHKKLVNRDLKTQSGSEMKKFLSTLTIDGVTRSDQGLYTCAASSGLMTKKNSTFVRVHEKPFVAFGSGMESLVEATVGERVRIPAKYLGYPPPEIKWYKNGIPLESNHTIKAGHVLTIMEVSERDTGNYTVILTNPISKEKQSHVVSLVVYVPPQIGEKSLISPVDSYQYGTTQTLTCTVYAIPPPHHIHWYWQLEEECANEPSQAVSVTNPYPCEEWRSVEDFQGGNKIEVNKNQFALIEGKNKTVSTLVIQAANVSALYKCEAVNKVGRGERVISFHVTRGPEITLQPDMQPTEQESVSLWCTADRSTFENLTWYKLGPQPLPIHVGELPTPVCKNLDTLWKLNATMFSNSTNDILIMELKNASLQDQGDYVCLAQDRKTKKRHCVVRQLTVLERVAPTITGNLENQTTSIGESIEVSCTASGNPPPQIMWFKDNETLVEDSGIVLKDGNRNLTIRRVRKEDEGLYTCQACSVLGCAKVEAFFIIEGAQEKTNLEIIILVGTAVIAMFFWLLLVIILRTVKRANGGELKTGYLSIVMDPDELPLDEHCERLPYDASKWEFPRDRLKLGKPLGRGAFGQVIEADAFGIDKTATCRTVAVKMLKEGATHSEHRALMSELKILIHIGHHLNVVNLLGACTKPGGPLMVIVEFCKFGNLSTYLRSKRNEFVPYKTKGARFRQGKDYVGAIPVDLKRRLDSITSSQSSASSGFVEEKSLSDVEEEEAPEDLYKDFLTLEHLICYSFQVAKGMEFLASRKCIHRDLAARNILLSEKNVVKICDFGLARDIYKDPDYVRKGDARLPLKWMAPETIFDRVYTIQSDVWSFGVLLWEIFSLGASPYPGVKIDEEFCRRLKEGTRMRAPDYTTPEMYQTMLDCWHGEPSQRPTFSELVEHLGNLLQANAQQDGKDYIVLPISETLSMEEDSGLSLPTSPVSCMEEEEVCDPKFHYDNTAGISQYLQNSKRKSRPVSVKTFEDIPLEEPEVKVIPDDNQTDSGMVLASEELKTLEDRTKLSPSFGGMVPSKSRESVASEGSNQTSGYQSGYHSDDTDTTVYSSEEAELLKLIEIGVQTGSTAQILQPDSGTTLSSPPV

For orientation: IC50 means the concentration that inhibits the measured activity by half. `COc1ccc(/C=C/C(=O)c2ccc(Nc3ncnc4sc5c(c34)CCCC5)cc2)cc1OC`: the 50% inhibitory concentration (IC50) came to 0.15 µM in [1] and 8.2 µM with MCF7.

Take `O=C(/C=C/c1ccc(Cl)cc1)c1ccc(Nc2ncnc3sc4c(c23)CCCC4)cc1`: the IC50 was 0.17 µM in assay [1] and 6.52 µM in the assay on MCF7.

A word on the inhibition: it is the change of the read-out against control, counted positive when it falls. For `Clc1cc(Nc2ncnc3sc4c(c23)CCCC4)ccc1OCc1ccccc1`, the results for the inhibition in [2] and in assay [3] were 84% and 93%, respectively.

Take `Fc1cccc(COc2ccc(Nc3ncnc4sc5c(c34)CCCC5)cc2Cl)c1`: the values for the inhibition at 10 µM in the assay on MDA-MB-468, in the assay with NCI-H522 and in the assay on SK-OV-3 were 68.2%, 56% and 80.6%, respectively. In addition, the results for the inhibition in assay [2] and in assay [3] were 84% and 93%, respectively.

Regarding `Fc1cccc(COc2ccc(Nc3ncnc4sc5c(c34)CCCC5)cc2)c1`, the inhibition in assay [2] came to 84%; in [3], 93%.

On to `Fc1ccc(COc2ccc(Nc3ncnc4sc5c(c34)CCCC5)cc2Cl)cc1`, for which the results for the inhibition in assay [2] and in assay [3] were 84% and 93%, respectively.

In the case of `COc1cccc(NC(=O)Nc2ccc(Oc3ncnc4sc5c(c34)CCCC5)cc2)c1`, the inhibition at 10 µM in the assay with HUVEC stood at 79.2%.

For `c1ccc(COc2ccc(Nc3ncnc4sc5c(c34)CCCC5)cc2)cc1`, the inhibition stood at 84% in [2] and 93% in [3].

Consider `O=C(Nc1ccc(Cl)cc1)Nc1ccc(Oc2ncnc3sc4c(c23)CCCC4)cc1`, for which the inhibition in assay [4] was found to be 46%.

Turning to `O=C(/C=C/c1ccccc1)c1ccc(Nc2ncnc3sc4c(c23)CCCC4)cc1`, the IC50 came to 0.32 µM in [1] and 20.2 µM with MCF7.

Consider `O=C(Nc1ccccc1)Nc1ccc(Oc2ncnc3sc4c(c23)CCCC4)cc1`, for which the inhibition at 10 µM in the assay with HUVEC was 64.3%.

Turning to `Cc1cccc(NC(=O)Nc2ccc(Oc3ncnc4sc5c(c34)CCCC5)cc2)c1`, in the assay on HUVEC, the inhibition at 10 µM turned out to be 82%. Also, the inhibition in vivo at 10 mg/kg with Ehrlich stood at 86.4%.

For `Cc1ccc(NC(=O)Nc2ccc(Oc3ncnc4sc5c(c34)CCCC5)cc2)cc1Cl`, the inhibition at 10 µM in the assay with HUVEC came out at 46%. In the assay on Ehrlich, the inhibition in vivo at 10 mg/kg stood at 82.7%.
